From patent US10617119B1, “Piscicide composition” (priority 2018, dated 2020) come the findings set out here.

In the assay the test system is Koi. Put plainly: Feeding of toxic pellets to Koi in aquatic tanks (consumption, mortality). It is filed as in vivo. The following applies: juvenile Koi.

Regarding `[O]=[Ca]` [calcium oxide], the “mortality / toxicity” value was “did not kill Koi”. `CC(=O)Nc1ccc(O)cc1` [acetaminophen]: the “mortality / toxicity” value is “None of the Koi died”.
